How the values were obtained:
[1] = tested on: HK82 (AlkB−) E. coli cells; assay type: cell-based; details: for Polymerase bypass efficiency, Avg.: HK82, percentage relative to unmodified control genome, triplicate
[2] = tested on: HK81 (AlkB+) E. coli cells; assay: REAP mutagenesis assay, HK81 cells; assay type: cell-based; details: for Mutagenicity, Average % A / Mutagenicity, Average % G / Mutagenicity, Average % T: (c) HK81
Description: All E. coli strains used in this work contain the F′ episome, which enables infection by M13 phage. GW5100 strain was used for large scale preparation of M13 phage DNA, SCS 110 (JM110, end Al) was used for amplification of progeny phage post-electroporation, and NR9050 was the strain of choice for double agar plating with X-GAL for blue-clear detection of plaques. The E. coli strains used to replicate lesion-containing phage were HK81 (as AB1157, but nalA) and HK82 (as AB1157, but nalA alkB22; AlkB-deficient).
Lesion-containing genomes were mixed with the competitor genome (80:20 molar ratio) and electroporated in triplicate into 100 μl competent cells using a 2 mm-gap cuvette and a BTX electroporator set to 2.5 kV and 125 a Typical pulse lengths were 4.9 msec. The cells were immediately transferred to 10 ml LB and an aliquot was immediately plated using the agar overlay method to verify that a minimum of 10^5 independent initial electroporation events occurred in 10 ml of culture. Incubation for 6 h at 37° C. with aeration generated the progeny phage, which were then reamplified in SCS 110 cells (10 μl overnight culture and 100 μl of the 6 h supernatant in 10 ml LB) to dilute out the residual genomic DNA used for electroporation. Single-stranded M13 progeny phage DNA was isolated from 1.4 ml of supernatant using a Q1Aprep Spin M13 Kit with final DNA suspension in 100 μl elution buffer. CRAB forward and reverse primers were used to amplify the region of interest from 15 μl per Q1Aprep elution sample in a total volume of 25 μl containing 50 pmol of each primer, 1×Pfu Turbo buffer, 1.25 U Pfu Turbo DNA polymerase and […] of each dNTP. The PCR program used 30 cycles of 67° C. (1 min) annealing and 72° C. (1 min) extensions. After purification using QIAQUICK PCR purification columns, 4 μl of the PCR product were treated with BbsI (1.5 U) and SAP (0.3 U) in a total volume of 6 μl by incubating at 37° C. for 4 h. After phosphatase inactivation, (80° C. for 5 min), the 5′ ends were then radiolabeled using [γ-^32P]-ATP (1.66 pmol, 10 μCi/μl, 6000 Ci/mmol), cold ATP (16 pmol) and 5 U of OPTIKINASE at 37° C. for 30 min. Following the kinase inactivation at 65° C. for 20 min, the labeled product was then trimmed by HaeIII (10 U in a final volume of 10 μl) at 37° C. for 2 h, and diluted 1:1 in formamide loading dye. PAGE separation on a 20% denaturing gel, run for about 3.5 h at 550 V, until the xylene cyanol dye migrated 10.5 cm, yielded two bands for each sample: an 18-mer originating from the lesion-containing genome and a 21-mer originating from the competitor genome. The gels were visualized on a phosphorimager (Typhoon 7000, GE Healthcare Life Sciences); the band intensities were quantified using IMAGEJ software (National Institutes of Health). Lesion bypass was calculated as the percentage ratio of the intensity of the 18-mer band (lesion signal) to the intensity of the 21-mer band (competitor signal).
The REAP assay methodology is identical to the CRAB assay except for the PCR primers, which amplified only the progeny DNA originating from the lesion-carrying genomes. Following electrophoresis, the 18-mer bands were excised from the gel, crushed and extracted with 200 μl water. After desalting with SEPHADEX G-50 Fine resin spin columns, the samples were lyophilized to dryness, resuspended in 5 μl containing 1 μg P1 Nuclease in 30 mM sodium acetate (pH 5.3) and 10 mM zinc chloride, and incubated at 50° C. for 1 h. One μl of each sample was then spotted onto PEI-TLC plates and separated using 200 ml of a saturated solution of (NH4)2HPO4 adjusted to pH 5.8. After 24 h of development, the TLC plates were air-dried and quantified using phosphorimagery. […]

With `NC1=NC(=O)N([C@H]2C[C@H](O)[C@@H](CO)O2)CN1` [KP1212, 5-aza-5,6-dihydro-2′-deoxycytidine] the “replication block / toxicity to replication” value ([1]; E. coli (FIG. 18D), for m3C cells that lack AlkB) was “not to be a replication block”, the “Polymerase bypass efficiency, Avg.” value [1] was 91% and the “Mutagenicity, Average % C” value [2] was 90.2%. The “Mutagenicity, Average % A” value [2] was 0.2%, the “Mutagenicity, Average % G” value [2] was 0.1% and the “Mutagenicity, Average % T” value [2] was 9.5%.

`Nc1ccn([C@H]2C[C@H](O)[C@@H](CO)O2)c(=O)n1` [dC, deoxycytidine] was tested, and the “Polymerase bypass efficiency, Avg.” value [1] was 100%, the “Mutagenicity, Average % C” value [2] was 99.9% and the “Mutagenicity, Average % A” value [2] was 0.1%. For the same compound, the “Mutagenicity, Average % G” value [2] was 0.0% and the “Mutagenicity, Average % T” value [2] was 0.0%.

— patent US9283242B2, “Uses of dihydro bases” (priority 2013, dated 2016)
